Measurements: PubChem BioAssay (NCI)
Values joined by “and” are separate entries in the source; they are usually repeats but may differ in a detail not shown here. Equal values may be shown once.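 Values below derive from 48-hour exposures of cells grown in 96-well plates, with endpoints linearly interpolated between the two concentrations bracketing the appropriate inhibition level. GI50 is the concentration that inhibits growth by half. At the TGI there is no net growth.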

Columns and labels:
Test in all cases: NCI tumour cell line growth inhibition, 48 h
[1] = test system: LXFL 529 NSCLC
[2] = test system: DMS 114 small cell lung
[3] = test system: RXF-631 renal
[4] = test system: XF 498 CNS
[5] = test system: SNB-78 CNS
[6] = test system: DMS 273 small cell lung
[7] = test system: M19-MEL melanoma
[8] = test system: HOP-18 NSCLC
[9] = test system: MDA-N
[10] = test system: P388/ADR leukemia
[11] = test system: SN12K1 renal
[12] = test system: P388 leukemia

| Compound | TGI [1] [µM] | TGI [2] | TGI [4] | TGI [5] | TGI [6] [µM] | TGI [7] | TGI [9] [µM] | other results |
| --- | --- | --- | --- | --- | --- | --- | --- | --- |
| CC(=O)NNc1nc(C)c(C(=O)/C=C/c2ccc(/C=C/C(=O)c3sc(NNC(C)=O)nc3C)cc2)s1 | > 100 | > 100 µM | > 100 µM | > 100 µM | > 100 | > 100 µM |  | TGI [3]: > 100 µM |
| N#CC(C#N)=C(N)/C(C#N)=C/c1ccc2[nH]ccc2c1 |  | > 100 µM |  | > 100 µM | > 100 | > 100 µM | > 100 | TGI [8]: > 100 µM |
| NC(=O)C12CC3CC(CC(Br)(C3)C1)C2 | > 100 | > 100 µM | > 100 µM | > 100 µM | > 100 |  |  | TGI [3]: > 100 µM; TGI [8]: > 100 µM |
| CC(C)=Nn1cnc(C(=N)C#N)c1N |  |  |  |  |  |  | > 100 |  |
| [N-]=[N+]=NC[C@H]1OCO[C@H](CN=[N+]=[N-])[C@H]2OCCOCCOc3ccccc3OCCOCCO[C@@H]21 |  |  |  |  |  |  | > 100 |  |
| COC(=O)/C(C#N)=C1\CCc2ccccc21 | > 100 | > 100 µM | > 100 µM |  | > 100 | > 100 µM |  |  |
| CCCCc1c2c(nc3c1CCc1cc4cc5c(nc4nc1-3)-c1nc3c(c(CCCC)c1CC5)CCC/C3=C\c1ccccc1)/C(=C/c1ccccc1)CCC2 | > 100 | > 100 µM |  | > 100 µM | > 100 |  |  |  |
| Cc1ccc(NC(=O)CC2SC(N)=NC2=O)cc1C (configuration not stated) | > 100 |  | > 100 µM | > 100 µM |  |  |  | TGI [3]: > 100 µM |
| CC1=C(Cl)C[C@@H](/C(C)=C\Cl)O[C@@]1(O)C(Br)Br |  |  |  |  |  |  | 41.8 |  |
| Cc1ccc(N=C2SC(c3ccc(C)cc3)(c3ccc(C)cc3)c3ccccc32)cc1 |  |  |  |  |  |  | > 100 |  |
| CCOP(=O)(OCC)C1(O)CC(n2cc(C)c(=O)[nH]c2=O)OC1CO (configuration not stated) |  |  |  |  |  |  | > 100 |  |
| CC1C2CC(C/C2=N/O)C1(C)C (configuration not stated) |  |  |  |  |  |  | > 100 |  |
| Nc1ncnc2c1nnn2C1C=C(CO)C(O)C1O (configuration not stated) | > 100 | > 86.2 µM | > 100 µM | > 100 µM | > 100 | > 100 µM |  | TGI [8]: > 100 µM |
| CSc1nc(C#N)c(N)n1C |  |  |  |  |  |  | > 100 |  |
| Cc1cc(C)nc(NS(=O)(=O)c2ccc(NC(=O)c3cccn4c(=O)c5ccccc5nc34)cc2)n1 | > 100 |  | > 100 µM | > 100 µM | > 100 | > 100 µM |  |  |
| Nc1ccc(C(=O)N/C(=C\c2cccc([N+](=O)[O-])c2)c2nc3ccc(Cl)cc3[nH]2)cc1 | > 100 | > 100 µM | > 100 µM | > 100 µM |  | > 100 µM |  | TGI [3]: > 100 µM |
| CC(=O)C12C[C@](C#N)(N3CCCCCC3)C1C=Cc1ccccc12 (some centres not stated) |  |  |  |  |  |  | > 100 |  |
| COC(=O)/C(=C\c1ccco1)P(=O)(OC)OC |  |  |  |  |  |  | > 100 |  |
| C/C(=C\Cc1cc(O)ccc1O)CCc1c(C)c(O)c(O)c(C=O)c1C | 32.4 | 34 µM | 48.8 µM |  | 74.6 | 38.8 µM |  | TGI [8]: 59.9 µM |
| Cc1nn(C(=O)c2ccncc2)c2c1C(c1cccc([N+](=O)[O-])c1)SC(N)=N2 (configuration not stated) |  |  |  |  |  |  | > 10 |  |
| CC1=C[C@@H](C)C[C@]2(C)CC[C@H](O2)[C@]23CC[C@](C)(C[C@H](O2)[C@@H]2O[C@@](C)(CC2=O)[C@@H](O)[C@H]2CC[C@@]4(CCC[C@@H](O4)[C@H](C)C(=O)O[C@H]4C[C@H]([C@]5(O)OCC[C@H](C)[C@@H]5O)O[C@H]4C=C1)O2)O3 |  |  |  |  |  |  | > 10 |  |
| Clc1ccccc1NN(Cc1ccncc1)c1ccccc1Cl |  |  |  |  |  |  | 27.8 |  |
| O=C(O)[C@@H](NS(=O)(=O)c1ccc2ccccc2c1)c1ccccc1 | > 100 |  | > 100 µM |  | > 100 | > 100 µM |  | TGI [3]: > 100 µM; TGI [8]: > 100 µM |
| COC1(C)C(=O)N2C1N(C(=O)OCc1ccccc1)CC2(C)C (configuration not stated) | > 100 | > 100 µM | > 100 µM |  | > 100 | > 100 µM |  |  |
| COc1cccc2c1[C@H]1CO[C@H]3C4C[C@H](C(=O)O)C([C@@H](C2)N13)N4C (some centres not stated) | 4.98 | 4.66 µM and 0.803 µM | 4.19 µM and 1.5 µM | 9.27 µM and > 30.5 µM | 1.31 | 9.62 µM and 1.32 µM | 0.406 | GI50 [2]: 0.187 µM; TGI [10]: 0.652 µM; GI50 [4]: 0.632 µM; GI50 [8]: 1.13 µM; TGI [8]: > 27.5 µM; TGI [11]: 8.4 µM; TGI [12]: 5.25 µM; GI50 [5]: 0.388 µM; GI50 [6]: 0.516 µM; GI50 [7]: 0.611 µM |
